Where two headings read alike, the source gives them in different places. Values belong to the compound of their own block, whether it stands above or below them.
Tests used:
[1] = tested on: hiPSC-CM derived cardiac tissue (WTC CMs) in the cardiac MPS; experiment: Cardiac MPS beat rate (motion tracking) drug response; assay type: cell-based, human; conditions: for effect on beats per minute (BPM): dose response
Text: A cardiac MPS that incorporates an in vitro 3D model of the human myocardium consisting of aligned CMs derived from hiPS cells was designed, fabricated and characterized with various in and ex situ monitoring tools. […] To characterize the functionality of the cardiac model, a motion tracking method capable of massive parallelization and high throughput analysis based on bright field microscopy as well as a custom made MEA enabling electrophysiological measurements inside the MPS was developed.
As an alternative to MEAs, a computational motion tracking method capable of performing high throughput analysis was developed. The computational motion tracking method analyzed the beating motion of cardiac tissue based on simple bright field movies (FIGS. 6A-C).
Drugs from classes that target a different physiological effect (i.e. ion channel, stimulant) were chosen, and the IC50 or EC50 values were determined.

[2] = tested on: LQT3 hiPSC-CM derived cardiac tissue in the MPS; experiment: LQT3 cardiac tissue in the MPS, beat frequency response; assay type: cell-based, human
Experimental: When fed continuously the tissue remained viable and functional for more than one month. Healthy and LQTS hiPSC-CM-derived cardiac tissue in the MPS were viable and amenable to continuous monitoring (e.g., MEA) and sampling for over 4 weeks. Beating tissues were created and loaded from multiple iPS cell lines, a disease cell line (LQT3), and the GCaMP6 isogenic reporter cell line.
FIG. 7. […] (B) Time dependent effect of 1 μM Isoproterenol (ISO) on bpm. * p<0.05 vs baseline.

adult human slice = adult human slice contractility; read-out: EC50 for the effect on adult human slice contractility; cited from earlier work

SMILES: COc1ccc(CCN(C)CCCC(C#N)(c2ccc(OC)c(OC)c2)C(C)C)cc1OC (stereo not drawn) [Verapamil]
- IC50 ([1]; Homo sapiens, read-out: IC50, dose dependent decrease of beat rate / beats per minute): 950 nM
- spontaneous beating ([1]; at high doses): abolished spontaneous beating
- effect on beats per minute (BPM) ([1]; cardiac MPS): dose-dependent decrease
- beat rate ([1]; exposure to 1 nM, multiple exposures on the same device): decreased the beat rate

- IC50 ([1]; cardiac MPS, beat rate, read-out: IC50, dose dependent decrease of beat rate / beats per minute): 392 nM
SMILES: Cc1cccc(CCN2CCC(C(=O)c3ccc(NS(C)(=O)=O)cc3)CC2)n1 [E-4031]

- EC50 ([1]; Homo sapiens, cardiac MPS, beat rate, read-out: EC50, concentration dependent increase on absolute beating (beats per minute)): 315 nM
SMILES: CC(C)NCC(O)c1ccc(O)c(O)c1 (stereo not drawn) [Isoproterenol]
- effect on beats per minute (BPM) ([1]; cardiac MPS): dose-dependent increase
- beat rate ([1]; subsequent exposure to 1 μM, same device, after at least 48 hours wash): increased the beat rate
- beat frequency ([2]; 100 nM concentration): no effect
- beat frequency ([2]; 10 min exposure to 1 μM): approximately doubled
- EC50 (adult human slice): 100 to 200 nM

- IC50 ([1]; Homo sapiens, cardiac MPS, beat rate, read-out: IC50, dose dependent decrease of beat rate): 244000 nM
SMILES: COCCc1ccc(OCC(O)CNC(C)C)cc1 (stereo not drawn) [Metoprolol]
